Earlier results on 1 compound are cited in US12004493B2, “Late-onset Alzheimer's disease animal model and uses thereof” (The Board of Regents of the University of Oklahoma, priority 2018, dated 2024).

This data set concerns early-phase AD patients. To be noted: DAO inhibitor.

Consider `O=C([O-])c1ccccc1.[Na+]` [Sodium benzoate], for which the “cognitive and overall functions” value was “improved cognitive and overall functions”.
